Experimental data as given in ChEMBL document CHEMBL1201862, “PubChem BioAssay data set” (2004).
The source made the active and inactive calls.

Key:
[1] = target: Hexokinase-1 (Homo sapiens, UniProt P19367); assay: hexokinase 1 activators, dose response, selectivity assay for HKDC1 activator project, biochemical (AID 504762); type: functional
[2] = target: T1, Hexokinase HKDC1 (Homo sapiens, UniProt Q2TB90); assay: HKDC1 hexokinase activators, dose response, biochemical, W721R variant (AID 504730); type: functional
T1 sequence (Q2TB90 whole entry): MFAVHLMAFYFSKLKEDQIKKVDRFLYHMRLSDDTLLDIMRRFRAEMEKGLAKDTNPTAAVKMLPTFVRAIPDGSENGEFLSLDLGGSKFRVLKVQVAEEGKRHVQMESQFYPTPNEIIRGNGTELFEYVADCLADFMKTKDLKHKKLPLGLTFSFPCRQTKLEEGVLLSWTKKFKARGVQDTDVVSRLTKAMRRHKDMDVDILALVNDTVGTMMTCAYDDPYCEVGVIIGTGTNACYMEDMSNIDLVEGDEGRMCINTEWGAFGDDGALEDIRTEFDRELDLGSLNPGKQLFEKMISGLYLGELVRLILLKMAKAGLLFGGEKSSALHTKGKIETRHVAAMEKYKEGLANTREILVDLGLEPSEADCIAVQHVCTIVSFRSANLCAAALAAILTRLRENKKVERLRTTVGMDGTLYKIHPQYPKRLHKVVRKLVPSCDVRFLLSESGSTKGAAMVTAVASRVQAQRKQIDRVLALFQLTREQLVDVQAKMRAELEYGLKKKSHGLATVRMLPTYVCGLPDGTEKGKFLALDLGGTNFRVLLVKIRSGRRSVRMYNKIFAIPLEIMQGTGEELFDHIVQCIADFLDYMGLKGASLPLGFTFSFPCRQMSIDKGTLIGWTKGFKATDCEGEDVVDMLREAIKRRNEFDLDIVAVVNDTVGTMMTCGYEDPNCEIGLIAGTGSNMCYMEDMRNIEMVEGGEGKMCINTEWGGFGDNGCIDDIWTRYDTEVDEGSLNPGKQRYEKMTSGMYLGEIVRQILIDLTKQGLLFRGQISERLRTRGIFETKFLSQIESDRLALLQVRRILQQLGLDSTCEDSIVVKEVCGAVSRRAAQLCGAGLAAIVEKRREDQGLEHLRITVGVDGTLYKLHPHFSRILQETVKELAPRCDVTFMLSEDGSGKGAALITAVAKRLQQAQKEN

[3] = target: T2, Protein RecA (Mycobacterium tuberculosis, UniProt P9WHJ3); assay: Fluorescence Cell-Free Homogeneous Dose Retest to Identify Inhibitors of RecA-Intein Splicing Activity. [Related pubchem assays (depositor defined):AID2097, AID2223, AID489010, AID492950]; type: functional
T2 sequence (P9WHJ3 whole entry): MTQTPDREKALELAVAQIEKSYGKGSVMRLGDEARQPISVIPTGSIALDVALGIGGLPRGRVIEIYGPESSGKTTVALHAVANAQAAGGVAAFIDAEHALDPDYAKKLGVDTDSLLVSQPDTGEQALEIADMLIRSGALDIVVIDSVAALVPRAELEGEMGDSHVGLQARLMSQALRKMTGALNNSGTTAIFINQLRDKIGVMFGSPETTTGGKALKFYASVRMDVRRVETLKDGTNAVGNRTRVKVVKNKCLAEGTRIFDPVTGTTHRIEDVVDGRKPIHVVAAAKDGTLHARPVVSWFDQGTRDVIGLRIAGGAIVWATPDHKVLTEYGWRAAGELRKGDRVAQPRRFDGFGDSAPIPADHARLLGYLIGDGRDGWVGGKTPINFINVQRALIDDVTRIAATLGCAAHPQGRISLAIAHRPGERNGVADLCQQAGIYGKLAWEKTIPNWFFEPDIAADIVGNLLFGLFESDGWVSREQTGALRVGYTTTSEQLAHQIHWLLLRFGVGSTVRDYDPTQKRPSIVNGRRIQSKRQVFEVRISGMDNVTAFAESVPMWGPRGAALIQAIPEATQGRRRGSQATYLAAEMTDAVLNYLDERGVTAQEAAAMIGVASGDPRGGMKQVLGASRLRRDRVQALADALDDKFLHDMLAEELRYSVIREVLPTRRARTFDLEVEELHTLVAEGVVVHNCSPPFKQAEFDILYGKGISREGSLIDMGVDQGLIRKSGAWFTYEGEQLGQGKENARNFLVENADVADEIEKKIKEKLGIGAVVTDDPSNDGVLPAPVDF

[4] = target: Neuropeptide Y receptor type 1 (Homo sapiens, UniProt P25929); type: functional;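 note: HEK293 cells with a CNG channel challenged with NPY then isoproterenol; potency as antagonist that reverses NPY suppression of cAMP signal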
[5] = target: Neuropeptide Y receptor type 2 (Homo sapiens, UniProt P49146); type: functional, cell-based;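 note: HEK293 cells expressing the receptor and a CNG channel; stimulus was NPY near EC95 followed by isoproterenol to raise cAMP; antagonist potency measured as restoring cAMP signal that NPY suppresses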
[6] = test system: INS1; assay: beta cell apoptosis inhibitors, cytokine rescue, dose response, luminescence, retest (AID 449756); type: functional, cell-based; conditions: Rattus norvegicus;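 note: cell death triggered by IL-1 beta plus TNF-alpha plus IFN-gamma mixture; protective hits raise ATP signal compared with cytokine alone wells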
[7] = target: T3, Replicative DNA helicase DnaB (Mycobacterium tuberculosis, UniProt P9WMR3); assay: DnaB intein splicing inhibitors, dose response, biochemical, cell-free fluorescence (AID 449749); type: functional
T3 sequence (P9WMR3 whole entry): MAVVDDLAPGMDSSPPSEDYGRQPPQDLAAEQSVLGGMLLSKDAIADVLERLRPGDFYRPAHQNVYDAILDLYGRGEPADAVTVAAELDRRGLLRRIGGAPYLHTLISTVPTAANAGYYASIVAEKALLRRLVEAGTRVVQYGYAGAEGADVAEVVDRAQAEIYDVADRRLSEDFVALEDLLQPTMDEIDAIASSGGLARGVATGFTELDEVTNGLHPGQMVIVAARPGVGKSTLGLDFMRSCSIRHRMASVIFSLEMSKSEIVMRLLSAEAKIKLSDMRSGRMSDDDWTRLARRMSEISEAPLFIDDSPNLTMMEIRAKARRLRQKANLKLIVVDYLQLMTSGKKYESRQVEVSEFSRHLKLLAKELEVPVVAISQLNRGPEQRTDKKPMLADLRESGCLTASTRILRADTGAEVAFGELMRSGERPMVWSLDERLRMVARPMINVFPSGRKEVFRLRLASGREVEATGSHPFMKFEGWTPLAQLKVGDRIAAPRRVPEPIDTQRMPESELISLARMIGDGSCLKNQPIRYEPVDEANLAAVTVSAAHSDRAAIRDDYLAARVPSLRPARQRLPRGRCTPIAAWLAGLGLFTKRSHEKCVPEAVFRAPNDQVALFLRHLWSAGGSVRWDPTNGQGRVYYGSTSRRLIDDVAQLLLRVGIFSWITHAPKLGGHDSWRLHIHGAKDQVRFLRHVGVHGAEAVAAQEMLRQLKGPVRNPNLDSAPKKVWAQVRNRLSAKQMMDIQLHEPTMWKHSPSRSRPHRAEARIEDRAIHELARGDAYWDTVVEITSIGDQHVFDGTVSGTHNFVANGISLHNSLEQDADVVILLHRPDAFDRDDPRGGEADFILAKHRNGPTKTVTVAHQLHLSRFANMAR

[8] = Intein inhibitors as potential Tuberculosis drugs, a cytotoxicity screen. [Related pubchem assays (depositor defined):AID2221, AID2223, AID434968, AID435010, AID449749, AID449750, AID489010]; type: functional
[9] = target: Lysine-specific demethylase 4C (Homo sapiens, UniProt Q9H3R0); assay: GASC-1 (JMJD2C) histone demethylase inhibitors, dose response, biochemical, DELFIA europium, cherry-picked samples (AID 488835); type: functional
[10] = target: Nonstructural protein 1 (Influenza A virus, UniProt Q194T2); type: functional, Influenza A virus (A/California/07/2009(H1N1))
[11] = target: T4, Ubiquitin-conjugating enzyme E2 N (Homo sapiens, UniProt P61088); type: functional
T4 sequence (P61088 whole entry): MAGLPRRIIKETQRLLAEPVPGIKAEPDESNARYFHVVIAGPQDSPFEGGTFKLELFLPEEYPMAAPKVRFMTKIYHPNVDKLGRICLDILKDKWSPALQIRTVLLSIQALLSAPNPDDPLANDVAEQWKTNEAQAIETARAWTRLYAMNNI

[12] = human group III sPLA2 inhibitors, dose response, biochemical, QFRET, IC50 (AID 743457);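 note: green fluorescence rise as the enzyme cleaves BODIPY PC-A2 in liposomes; potency for inhibition of the enzyme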
[13] = target: T4, Ubiquitin-conjugating enzyme E2 N; type: functional; remark: listed apart in the source
[14] = target: T5, Bcl-2-related protein A1 (Mus musculus, UniProt Q07440); type: functional;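 note: confirmatory dose–response counterscreen on Bfl-1, used to check hits from a UBC13 polyubiquitin inhibitor campaign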
T5 sequence (Q07440 whole entry): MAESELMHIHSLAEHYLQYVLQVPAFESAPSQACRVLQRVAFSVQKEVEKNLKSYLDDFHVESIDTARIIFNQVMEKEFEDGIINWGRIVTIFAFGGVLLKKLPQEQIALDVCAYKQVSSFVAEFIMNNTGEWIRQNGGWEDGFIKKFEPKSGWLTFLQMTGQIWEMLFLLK
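Throughout, for CC50: cells exposed to compound for 72 hours before luminescence readout.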

Sequence of Neuropeptide Y receptor type 1 (P25929 whole entry): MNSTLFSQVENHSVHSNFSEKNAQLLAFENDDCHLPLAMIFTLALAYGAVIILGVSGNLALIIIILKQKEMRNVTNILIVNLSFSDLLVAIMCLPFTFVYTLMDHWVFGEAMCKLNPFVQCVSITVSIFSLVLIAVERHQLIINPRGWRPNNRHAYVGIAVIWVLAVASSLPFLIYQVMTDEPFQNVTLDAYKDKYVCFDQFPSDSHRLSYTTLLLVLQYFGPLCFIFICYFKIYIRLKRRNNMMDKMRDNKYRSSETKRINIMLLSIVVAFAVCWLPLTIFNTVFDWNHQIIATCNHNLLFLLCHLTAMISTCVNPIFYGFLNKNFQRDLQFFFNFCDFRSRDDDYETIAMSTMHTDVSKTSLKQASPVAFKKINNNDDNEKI
Sequence of Hexokinase-1 (P19367 whole entry): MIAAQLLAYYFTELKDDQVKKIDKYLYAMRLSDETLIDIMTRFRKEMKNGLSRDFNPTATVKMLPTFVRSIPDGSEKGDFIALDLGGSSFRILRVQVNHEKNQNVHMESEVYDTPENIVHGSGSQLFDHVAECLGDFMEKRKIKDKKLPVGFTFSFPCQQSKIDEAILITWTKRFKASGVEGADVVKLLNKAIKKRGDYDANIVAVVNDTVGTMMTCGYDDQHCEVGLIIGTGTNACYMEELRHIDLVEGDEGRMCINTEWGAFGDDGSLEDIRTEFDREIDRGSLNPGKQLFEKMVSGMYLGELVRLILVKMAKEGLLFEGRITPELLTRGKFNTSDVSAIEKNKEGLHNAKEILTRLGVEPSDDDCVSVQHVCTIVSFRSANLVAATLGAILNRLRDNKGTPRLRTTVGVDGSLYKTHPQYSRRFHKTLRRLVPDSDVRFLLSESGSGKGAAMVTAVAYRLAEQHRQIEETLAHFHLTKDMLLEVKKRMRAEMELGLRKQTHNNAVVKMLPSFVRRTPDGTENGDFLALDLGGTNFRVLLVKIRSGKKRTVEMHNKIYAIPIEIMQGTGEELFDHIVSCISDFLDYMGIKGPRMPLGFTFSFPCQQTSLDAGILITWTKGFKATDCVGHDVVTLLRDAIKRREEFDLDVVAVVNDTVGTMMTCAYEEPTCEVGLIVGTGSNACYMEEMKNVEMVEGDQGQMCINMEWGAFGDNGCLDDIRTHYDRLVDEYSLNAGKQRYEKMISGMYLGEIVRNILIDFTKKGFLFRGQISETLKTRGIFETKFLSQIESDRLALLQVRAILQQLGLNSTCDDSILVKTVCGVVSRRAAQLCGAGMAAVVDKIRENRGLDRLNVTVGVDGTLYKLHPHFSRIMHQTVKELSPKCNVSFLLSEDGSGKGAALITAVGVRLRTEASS
Sequence of Nonstructural protein 1 (Q194T2 whole entry): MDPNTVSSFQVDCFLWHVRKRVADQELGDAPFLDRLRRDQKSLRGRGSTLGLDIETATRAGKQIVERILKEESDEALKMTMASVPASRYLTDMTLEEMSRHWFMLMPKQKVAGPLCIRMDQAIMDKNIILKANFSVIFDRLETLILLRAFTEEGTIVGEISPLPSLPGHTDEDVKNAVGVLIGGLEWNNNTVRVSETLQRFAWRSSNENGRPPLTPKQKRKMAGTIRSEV
Sequence of Lysine-specific demethylase 4C (Q9H3R0 whole entry): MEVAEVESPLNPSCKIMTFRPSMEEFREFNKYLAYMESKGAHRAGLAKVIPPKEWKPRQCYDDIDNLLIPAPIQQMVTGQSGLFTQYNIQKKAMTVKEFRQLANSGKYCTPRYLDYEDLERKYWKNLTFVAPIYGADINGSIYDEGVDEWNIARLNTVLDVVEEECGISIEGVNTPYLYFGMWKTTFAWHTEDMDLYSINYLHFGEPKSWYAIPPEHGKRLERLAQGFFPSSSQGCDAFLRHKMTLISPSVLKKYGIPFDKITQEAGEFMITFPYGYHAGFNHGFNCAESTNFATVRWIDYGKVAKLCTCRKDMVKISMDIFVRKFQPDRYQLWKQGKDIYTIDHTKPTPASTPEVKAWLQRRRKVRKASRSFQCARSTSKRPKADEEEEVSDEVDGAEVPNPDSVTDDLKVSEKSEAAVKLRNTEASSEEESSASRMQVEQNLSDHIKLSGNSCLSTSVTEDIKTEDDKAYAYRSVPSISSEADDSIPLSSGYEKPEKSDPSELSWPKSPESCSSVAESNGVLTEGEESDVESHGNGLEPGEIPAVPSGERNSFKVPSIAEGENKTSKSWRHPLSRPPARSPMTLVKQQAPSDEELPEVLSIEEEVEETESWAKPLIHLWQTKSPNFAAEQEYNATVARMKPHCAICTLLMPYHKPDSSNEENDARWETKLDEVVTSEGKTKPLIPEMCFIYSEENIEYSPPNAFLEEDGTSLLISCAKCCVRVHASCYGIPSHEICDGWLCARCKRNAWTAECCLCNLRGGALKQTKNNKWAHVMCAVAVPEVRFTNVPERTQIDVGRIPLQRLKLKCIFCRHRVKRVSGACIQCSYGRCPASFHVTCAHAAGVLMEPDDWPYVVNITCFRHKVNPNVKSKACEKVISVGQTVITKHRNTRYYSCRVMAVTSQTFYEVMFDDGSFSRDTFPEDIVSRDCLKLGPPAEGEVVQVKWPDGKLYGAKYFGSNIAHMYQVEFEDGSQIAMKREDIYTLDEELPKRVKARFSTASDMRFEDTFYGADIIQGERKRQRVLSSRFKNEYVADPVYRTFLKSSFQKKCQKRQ
Sequence of Neuropeptide Y receptor type 2 (P49146 whole entry): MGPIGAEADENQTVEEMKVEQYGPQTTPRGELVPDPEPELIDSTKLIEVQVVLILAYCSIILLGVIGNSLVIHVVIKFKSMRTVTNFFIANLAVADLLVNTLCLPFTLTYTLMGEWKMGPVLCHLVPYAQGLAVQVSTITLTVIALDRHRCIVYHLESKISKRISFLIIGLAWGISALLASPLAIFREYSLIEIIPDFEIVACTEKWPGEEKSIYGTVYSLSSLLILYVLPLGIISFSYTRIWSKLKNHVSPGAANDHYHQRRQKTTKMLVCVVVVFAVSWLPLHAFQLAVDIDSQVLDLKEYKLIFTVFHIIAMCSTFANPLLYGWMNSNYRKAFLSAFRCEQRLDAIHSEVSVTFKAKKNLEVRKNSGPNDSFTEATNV

Cc1ccccc1NC1=NN=C(c2ccccc2F)CS1
EC50 [1]: 53.2 µM (inactive) | EC50 [2]: 27 µM (inactive)

COC(=O)c1c(C)oc2ccc(N(C(=O)c3ccncc3)S(=O)(=O)c3ccc4ccccc4c3)cc12
EC50 [3]: 4.08 µM (active) | IC50 [4]: 4.84 µM (active) | IC50 [5]: 7.94 µM (active) | AC50 [6]: 12.9 µM (active) | AC50 [7]: 4.46 µM (active) | CC50 [8]: 36.5 µM (active)

Cc1cccc(-n2cnc(C(=O)NN=C(S)Nc3ccccc3)c2)n1
AC50 [9]: 5.67 µM (active) | IC50 [10]: 4.86 µM (active) | IC50 [11]: 14.8 µM (active) | IC50 [12]: > 122 µM (inactive) | IC50 [13]: 6.96 µM (active) | IC50 [14]: > 20 µM (inactive)
